Results as given in patent publication US4556676A, “Antidepressant derivatives of trans-4-phenyl-1,2,3,4-tetrahydro-1-naphthalenamine” (priority 1980, dated 1985).
Counter-ions that a name gives are not always drawn. Like-named read-outs stand apart in the source and are kept apart here.

Key:
[1] = system: synaptosomal uptake of norepinephrine (NE); assay: Blockade of synaptosomal uptake of norepinephrine (NE) in vitro, rat hypothalmus; format: biochemical, Sprague-Dawley CD male rats; conditions: rat hypothalmus synaptosomes
Description: (§1) Sprague-Dawley CD male rats weighing 180-220 g. (Charles River Laboratories, Inc.; Wilmington, Mass.) were used in this procedure. A crude synaptosomal fraction of rat corpus striatum (for 5HT and DA uptake) or hypothalmus (for NE uptake) tissue was prepared by homogenizing tissue (25 ml./g. wet) in ice-cold 0.32M sucrose containing 1 mg./ml. glucose, 0.0001M EDTA and tris(hydroxymethyl)aminomethane to pH 7.4. The homogenate was centrifuged at 1000×g for 10 min. at 0°-4° C., the pellet discarded and the supernatant centrifuged at 17,000×g for 20 min. at 0°-4° C. The resulting pellet was resuspended in the ice-cold 0.32M sucrose pH 7.4 solution at 10 ml./g. original tissue (wet) for corpus striatum and 5 ml./g. original tissue (wet) for hypothalmus. […] Duplicate 0.1 ml. aliquots of the tissue suspension were incubated for 10 min. at 37° C. with 0.02 ml. of a solution containing a known quantity of the named test compound and 1.0 ml. of the incubation buffer containing additionally 1 mg./ml. glucose and 0.0001 mM labeled monoamine (^14 C-5HT, ^14 C-DA or ^3 H-NE). After incubation, the mixtures were filtered through 0.45 micron Millipore filters and the filters washed with the incubation buffer. […] Uptake was calculated as picomoles 5HT, DA or NE per mg. protein (protein was determined by measurement with Folin phenol reagent).

[2] = system: synaptosomal uptake of dopamine (DA); assay: Blockade of synaptosomal uptake of dopamine (DA) in vitro, rat corpus striatum; format: biochemical, Sprague-Dawley CD male rats; conditions: rat corpus striatum synaptosomes
Description: as §1

[3] = system: 5-hydroxytryptophan-induced tremors; assay: Potentiation of 5-hydroxytryptophan-induced behavioral symptoms (tremors) in vivo; set-up: species or system Swiss-Webster CD male mice; conditions: for ED50: Mus musculus; for ED50 (tremors): then 100 mg./kg. i.p. 5HTP one hour later, Hydrochloride
Description: The mice were rated for the presence of this symptom by a "blinded observer" at 10-20 min. after 5HTP treatment.

mice = assay: Reduction of behavioral despair in vivo (modified Porsolt mouse swim test); set-up: species or system Swiss-Webster CD male mice; conditions: sc, read-out: MPE50
Description: A number of Swiss-Webster CD male mice weighing 25-30 g. (Charles River Laboratories, Inc.; Wilmington, Mass.) were housed under standard laboratory conditions for at least one week prior to experimentation. […] One hour later the mice were placed individually in 1 liter beakers containing 7 cm. of 25° C. water. Beginning at 2 min. after immersion, each mouse was observed every 30 sec. for the presence of immobility, characterized as floating motionless in the water. A total of ten observations were made, each being scored as "0=animal moving, swimming, attempting to escape" or "1=animal immobile". The number of positive observations for each mouse was then totaled and a mean immobility score calculated for the group of ten.

[4] = system: synaptosomal uptake of serotonin (5HT); assay: Blockade of synaptosomal uptake of serotonin (5HT) in vitro, rat corpus striatum; format: biochemical, Sprague-Dawley CD male rats; conditions: rat corpus striatum synaptosomes, 5HT uptake
Description: as §1

uptake of serotonin = conditions: known drugs; cited from earlier work
[5] = mice, oral, no observed tremors at 32 mg./kg., highest dose tested, read-out: ED50 (tremors), footnoted
[6] = po, 1 h, read-out: ED50 (tremors), mice, oral, then 100 mg./kg. i.p. 5HTP one hour later
[7] = mice, subcutaneous, 1 hour before test

Structure (SMILES): CN(C)[C@@H]1CC[C@@H](c2ccccc2)c2ccccc21 (relative stereo) [II, Trans-(1S)(1R)-N,N-- dimethyl-4-phenyl-1,2,3,4-tetrahydro-1-naphthalenamine hydrochloride, reference compound]
- IC50 [1]: 140 nM
- IC50 [2]: 840 nM

Structure (SMILES): CN(C)[C@@H]1CC[C@@H](c2ccc(Cl)cc2)c2ccccc21 (relative stereo) [Example 20]
- IC50 [1]: 130 nM
- IC50 [2]: 380 nM

Structure (SMILES): CN[C@@H]1CC[C@@H](c2ccc(Cl)cc2)c2ccccc21.Cl (relative stereo) [Example 5, Trans-N-methyl-4-(4-chlorophenyl)-1,2,3,4-tetrahydro-1-naphthalenamine Hydrochloride]
- ED50 [3, 5]: > 32 mg/kg

Structure (SMILES): CN(C)[C@@H]1CC[C@@H](c2ccc(C(F)(F)F)cc2)c2ccccc21 (relative stereo) [Example 19]
- ED50 [3, 6]: 3.2 to 10 mg/kg
- IC50 [1]: 4700 nM
- IC50 [2]: 9800 nM

Structure (SMILES): CN[C@@H]1CC[C@@H](c2ccc(C(F)(F)F)cc2)c2ccccc21 (relative stereo) [Example 8]
- ED50 (mice; [7]): > 10 mg/kg
- ED50 [3, 6]: 10 to 32 mg/kg
- IC50 [1]: 690 nM
- IC50 [2]: 4400 nM

Structure (SMILES): CN[C@@H]1CC[C@@H](c2ccc(Br)cc2)c2ccccc21 (relative stereo) [Example 12, Trans-(1S)(1R)-N-methyl-4-(4-bromophenyl)-1,2,3,4-tetrahydro-1-naphthalenamine Hydrochloride]
- IC50 [4]: 90 nM
- IC50 [1]: 29 nM
- IC50 [2]: 80 nM

Structure (SMILES): CN[C@@H]1CC[C@@H](c2ccc(Cl)cc2)c2ccccc21.Cl (relative stereo) [Example 6, Trans-N-methyl-4-(4-chlorophenyl)-1,2,3,4-tetrahydro-1-naphthalenamine Hydrochloride]
- ED50 (mice; [7]): 0.88 mg/kg
- ED50 (tremors) ([3]; mice, oral): 3.2-10 mg./kg. - oral

Structure (SMILES): CN[C@@H]1CC[C@@H](c2ccccc2)c2ccccc21 (relative stereo) [I, Trans-(1S)(1R)-N-- methyl-4-phenyl-1,2,3,4-tetrahydro-1-naphthalenamine hydrochloride, reference compound]
- IC50 [4]: 1500 nM
- IC50 [1]: 37 nM
- IC50 [2]: 210 nM

Structure (SMILES): CN[C@@H]1CC[C@@H](c2ccc(OC)cc2)c2ccccc21 (relative stereo) [Example 13, Trans-(1S)(1R)-N-methyl-4-(4-methoxyphenyl)-1,2,3,4-tetrahydro-1-naphthalenamine Hydrochloride]
- IC50 [1]: 150 nM
- IC50 [2]: 400 nM

Structure (SMILES): CN[C@@H]1CC[C@@H](c2cccc(C(F)(F)F)c2)c2ccccc21 (relative stereo) [Example 9, Trans-(1S)(1R)-N-methyl-4-(3-trifluoromethylphenyl)-1,2,3,4-tetrahydro-1-naphthalenamine Maleate]
- ED50 (mice; 1 h): > 32 mg/kg
- ED50 [3, 6]: 10 to 32 mg/kg
- IC50 [1]: 260 nM
- IC50 [2]: 2600 nM

Structure (SMILES): CN[C@@H]1CC[C@@H](c2ccc(F)cc2)c2ccccc21 (relative stereo) [Example 7, Trans-(1S)(1R)-N-methyl-4-(4-fluorophenyl)-1,2,3,4-tetrahydro-1-naphthalenamine Hydrochloride]
- ED50 (mice; 1 h): 2.3 mg/kg
- ED50 ([3]; po, read-out: ED50 (tremors), footnoted, mice, oral, no observed tremors at 32 mg./kg., highest dose tested): > 32 mg/kg
- IC50 [1]: 27 nM
- IC50 [2]: 220 nM

Structure (SMILES): CN(C)[C@@H]1CC[C@@H](c2ccc(Cl)c(Cl)c2)c2ccccc21 (relative stereo) [Example 20a]
- IC50 [2]: 170 nM

Structure (SMILES): CN[C@@H]1CC[C@@H](c2ccc(Cl)cc2)c2ccccc21.Cl (relative stereo) [Example 4, Trans-N-methyl-4-(4-chlorophenyl)-1,2,3,4-tetrahydro-1-naphthalenamine Hydrochloride]
- ED50 (tremors) ([3]; mice, oral): 10-32 mg./kg. - oral
- IC50 ([2]; Hydrochloride): 110 nM

Structure (SMILES): N[C@@H](Cc1c[nH]c2ccc(O)cc12)C(=O)O [Example 5HTP, 5-hydroxytryptophan, reference compound]
- behavioral effects of 5HTP by itself ([3]; mice, 100 mg./kg. i.p. 5HTP alone): no clear behavioral effects

Structure (SMILES): CN[C@@H]1CC[C@@H](c2ccccc2OC)c2ccccc21 (relative stereo) [Example 14]
- ED50 (mice; [7]): > 32 mg/kg
- ED50 [3, 5]: > 32 mg/kg
- IC50 [4]: 4500 nM
- IC50 [1]: 480 nM
- IC50 [2]: 5700 nM

Structure (SMILES): CN[C@@H]1CC[C@@H](c2ccc(Cl)cc2Cl)c2ccccc21 (relative stereo) [Example 16, Trans-(1S)(1R)-N-methyl-4-(2,4-dichlorophenyl)-1,2,3,4-tetrahydro-1-naphthalenamine Hydrochloride]
- IC50 [2]: 6100 nM

Structure (SMILES): CN[C@@H]1CC[C@@H](c2ccc(Cl)c(C(F)(F)F)c2)c2ccccc21 (relative stereo) [Example 10]
- ED50 (mice; [7]): < 32 mg/kg
- ED50 [3, 6]: 10 to 32 mg/kg
- IC50 [2]: 7300 nM

Structure (SMILES): CN[C@@H]1CC[C@@H](c2ccc(Cl)cc2)c2ccc(OC)cc21 (relative stereo) [Example 17, Trans-(1S)(1R)-N-methyl-4-(4-chlorophenyl)-7-methoxy-1,2,3,4-tetrahydro-1-naphthalenamine Hydrochloride]
- IC50 [4]: 150 nM
- IC50 [1]: 17 nM
- IC50 [2]: 42 nM

Structure (SMILES): CN(C)[C@@H]1CC[C@@H](c2cccc(C(F)(F)F)c2)c2ccccc21 (relative stereo) [Example 18, Trans-(1S)(1R)-N,N-dimethyl-4-(3-trifluoromethylphenyl)-1,2,3,4-tetrahydro-1-naphthalenamine Maleate]
- IC50 [4]: 220 nM
- IC50 [1]: 1400 nM
- IC50 [2]: 6100 nM

Structure (SMILES): CN(C)C/C=C(/c1ccc(Br)cc1)c1cccnc1 [zimelidine]
- selective block of uptake of serotonin (compared to norepinephrine blockade) (uptake of serotonin): selectively block the uptake of serotonin

Structure (SMILES): COCCCC/C(=N\OCCN)c1ccc(C(F)(F)F)cc1 [fluvoxamine]
- selective block of uptake of serotonin (compared to norepinephrine blockade) (uptake of serotonin): selectively block the uptake of serotonin

Structure (SMILES): CN[C@@H]1CC[C@@H](c2cccc(OC)c2)c2ccccc21 (relative stereo) [Example 15]
- IC50 [4]: 340 nM
- IC50 [1]: 60 nM
- IC50 [2]: 530 nM

Structure (SMILES): CN[C@@H]1CC[C@@H](c2ccc(Cl)c(Cl)c2)c2ccccc21 (relative stereo) [Example 1, Trans-(1S)(1R)-N-methyl-4-(3,4-diclorophenyl)-1,2,3,4-tetrahydro-1-naphthalenamine Hydrochloride]
- ED50 (mice; 1 h): 1.5 mg/kg
- ED50 ([3]; po, 1 h, read-out: ED50 (oral dosage level at which tremors elicited), mice, oral, then 100 mg./kg. i.p. 5HTP one hour later, tremors): 3.2 to 10 mg/kg

Structure (SMILES): CN[C@@H]1CC[C@@H](c2ccc(Cl)cc2)c2ccc(Cl)cc21 (relative stereo) [Example 11, Trans-(1S)(1R)-N-methyl-4-(4-chlorophenyl)-7-chloro-1,2,3,4-tetrahydro-1-naphthalenamine Hydrochloride]
- ED50 (mice; [7]): 6.4 mg/kg
- IC50 [4]: 160 nM
- IC50 [1]: 28 nM
- IC50 [2]: 45 nM
